The values that follow come from US20220168268A1, “SMALL-MOLECULE INHIBITOR OF PD-1/PD-L1, PHARMACEUTICAL COMPOSITION THEREOF WITH PD-L1 ANTIBODY, AND APPLICATION OF SAME” (Guangzhou Maxinovel Pharmaceuticals Co., Ltd., priority 2019, published 2022).

A short description of series [1]: Pharmacokinetic experiment in mice (iv and oral gavage). It counts as in vivo. The following applies: mouse, whole blood; CD1 male mice; tail vein 2 mg/kg and oral gavage 10 mg/kg. From the text:
Glipizide (molecular formula was C21H27N5O4S, molecular weight was 445.5 g/mol, Analytical Reagent) purchased from Sigma-Aldrich (U.S.A.), was used as the internal standard for analysis. Methanol, acetonitrile and formic acid (HPLC grade) were purchased from Sigma-Aldrich (U.S.A.), and pure water was purchased from Hangzhou Wahaha Group Co., Ltd. (Hangzhou, China). Other chemical reagents were all analytical reagents.
CD1 male mice, six per group, 6-7 weeks old, 29-31 g, were purchased from LC Laboratory Animal Co. LTD. Before the experiment, the animals should be kept for at least 3 days to adapt to the environment. Throughout the experiment, the animals were required to fast overnight, and allowed to drink water freely during the period, and the surviving animals resumed feeding 4 hours after administration.
1. The compound was formulated into a solution with a concentration of 0.4 mg/mL with 10% DMSO, 10% Solutol HS 15 and 80% Saline.
2. The above prepared solution was administered to 3 mice by tail vein injection (compound dosage was 2 mg/kg), and was administered to another 3 mice by oral gavage (compound dosage was 10 mg/kg) simultaneously.
3. Approximately 30 μL of blood was collected from each of the above 6 mice at 5 minutes, 15 minutes, 30 minutes, 1 hour, 2 hours, 4 hours, 8 hours and 24 hours after administration into the EDTA-K2 anticoagulation tube (set on wet ice), and 20 μL of blood was immediately diluted with 60 μL of water, and then put in the refrigerator at −70° C. for long-term storage until the sample was analyzed.
4. 20 μL of the above solution was transfered into a 96-well deep well sample plate, and 150 μL of glipizide internal standard acetonitrile solution (the concentration was 100 ng/mL) was added, vortexed for 10 min, and centrifuged at […] for 10 min 1 μL of the supernatant was taken for LCMSMS analysis.
5. Based on the drug concentration-time data, WinNonlin 6.4 software (USA) was used to calculate the pharmacokinetic parameters of the compound according to the non-compartment model.

The subject of series [2] is colon cancer MC-38-hPD-L1. Briefly: In vivo pharmacodynamics in hPD-1 knock-in mouse colon cancer MC-38-hPD-L1 model. The following applies: D19; for Tumor Volume: mean ± SEM. On the set-up: species or system C57BL/6-hPD-1 mice. As for the experimental part: In vivo pharmacodynamics study of PD-L1 antibody Durvalumab and compound 29 used singly or in combination in hPD-1 knock-in mouse colon cancer MC-38-hPD-L1 model
Antibody: PD-L1 antibody Imfinzi (Durvalumab), 120 mg/2.4 mL (50 mg/mL), Lot: 041E17C. Manufacturer: AstraZeneca, purchased from Hong Kong Mingchuang Pharmacy Co., Ltd., stored at 2-8° C.
Experimental animals: Human PD-1 transgenic mice, strain: C57BL/6-hPD-1 mice, 6-8 weeks, weighing 18-21 grams, female, 120 mice, purchased from GemPharmatech Co., Ltd.
Human PD-L1 gene was knocked into MC-38 cells (MC-38-hPD-L1 cells), MC-38 cells was adherent cultured in vitro in DMEM medium with 10% heat-inactivated fetal bovine serum and hygromycinB (final concentration […]) at 37° C. under 5% CO2.
Passage cultivation was conducted three times a week. The cells were collected and counted at the exponential growth phase. 100 μL 1×10^6 MC-38-hPD-L1 cells suspension was inoculated into the right dorsal subcutaneous of C57BL/6-hPD-1 mice. 6 days after inoculation, 60 tumor-bearing mice with transplanted tumor volume ranging from 31.49 mm^3-110.26 mm^3 were selected, the mice were randomly divided into 6 groups, with 10 in each group, according to the experimental plan, and administration was started on the same day.
Preparation of vehicle: 800 mL sterile water was measured and added to volumertic flask. Magnetic stirring was carried out to produce vortex on the liquid surface. An aqueous solution of 10% (w/v) Cremophor RH40+20% (w/v) SBE-β-CD was obtained by slow addition of 100 g Cremophor RH40, followed by 200 g SBE-β-CD, and water to fix the solution volume to 1000 mL with fully stirring.
Preparation of Compound 29 suspension: 150.92 mg compound 29 was weighed and 12.5 […] 10% (w/v) Cremophor RH40+20% (w/v) SBE-β-CD (hereinafter referred to as vehicle) aqueous solution was added. A suspension was with a concentration of 12.0 mg/mL was obtained by fully mixing with vortexing for 2 minutes and ultrasonic treatment for 30 minutes. 5.0 mL of the suspension of compound 29 with a concentration of 12.0 mg/mL was pipetted, and 5.0 mL of vehicle was added to the suspension. The suspension with a concentration of 6.0 mg/mL was obtained by fully mixing with vortexing for 1 minute and ultrasonic treatment for 5 minutes. 2.0 mL of the suspension of compound 29 with a concentration of 12.0 mg/mL was pipetted, and 6.0 mL of vehicle was added to the suspension. The suspension with a concentration of 3.0 mg/mL was obtained by fully mixing with vortexing for 1 minute and ultrasonic treatment for 5 minutes. The suspension of compound 29 was prepared once a day.
Preparation of PD-L1 antibody: […] of Durvalumab stock solution (concentration: 50 mg/mL) was pipetted and divided into 6 portions in 5 mL sterile centrifuge tube, with 6.0 mg in each portion, then the portions were stored in a 4° C. refrigerator for late use. Before administration, 0.12 mL of stock solution (concentration: 50 mg/mL) was pipetted, 2.88 mL of 0.9% sodium chloride solution was added to the stock solution. 3 mL of the solution of Durvalumab with a final concentration 2 mg/mL was obtained by shaking slightly and fully vortexing.
1) The mice in the vehicle control group were weighed and recorded in an electronic balance according to the number. The mice in the vehicle control group were administered by oral gavage with vehicle according to the weight twice a day with a capacity of 0.1 mL/10 g. The time for administration was about 20 s for each mouse, and about 5 minutes in total for each group of 10 mice. 2) The mice in the compound 29 (30 mg/kg) group were weighed and recorded in an electronic balance according to the number. The mice in this group were administered by oral gavage with the prepared Compound 29 suspension according to the weight twice a day with a dosage of 30 mg/kg and a capacity of 0.1 mL/10 g. The time for administration was about 20 s for each mouse, and about 5 minutes in total for each group of 10 mice. […]

The next series addresses T1, PD-1/PD-L1 (Homo sapiens, UniProt Q9NZQ7).
T1 construct: unspecified kit tag (tag1 or tag2, recognised by the detection antibodies); purchased CisBio 64CUS000C-1
Put plainly: Homogeneous Time-Resolved Fluorescence (HTRF) PD-1/PD-L1 binding assay. The following applies: CisBio kit. As to the method:
Homogenouse Time-Resolved Fluorescence (HTRF) binding assay was used to determine the binding activity of the compound of the present disclosure to PD-1/PD-L1.
The purchased kit (CisBio, #64CUS000C-1) contained the reagents required for experiments such as PD-1, PD-L1, anti-tagl-Eu, Anti-tag2-XL665, Dilute Buffer and Detection Buffer.
1. The compound was formulated to 10 concentrations with a three-fold concentration gradient with 100% DMSO.
2. The solution of the compound in DMSO was added to Dilute Buffer, and mixed evenly and then transferred to a 96-well plate.
3. PD-L1 was diluted with Dilute Buffer and added to the 96-well plate above.
4. PD-1 was diluted with Dilute Buffer, then added to the 96-well plate above and incubated at room temperature for 30 minutes.
5. One portion of anti-tag1-Eu and one portion of anti-tag2-XL665 were added to Detection Buffer, mixed evenly and transferred to the 96-well plate above.
6. The mixed solution in the 96-well plate were incubated at room temperature for 1 to 24 hours.
7. HTRF values were read by Envision.
A general note: TR-FRET usually uses a lanthanide donor and a delayed reading to cut background.

Several values for one entry are separate records, joined by “and”; a condition that tells them apart may be missing. Identical values can stand only once.

T1 sequence (Q9NZQ7 19-238 limits assumed): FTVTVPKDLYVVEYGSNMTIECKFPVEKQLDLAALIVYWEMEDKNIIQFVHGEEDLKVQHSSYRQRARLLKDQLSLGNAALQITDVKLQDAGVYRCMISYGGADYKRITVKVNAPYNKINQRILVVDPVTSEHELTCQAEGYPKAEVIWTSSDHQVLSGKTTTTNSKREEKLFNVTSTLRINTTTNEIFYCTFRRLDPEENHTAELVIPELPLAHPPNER

`COc1cc(/C=C/c2cccc(-c3ccccc3)c2C)cc(OC)c1CN[C@@H](CO)C(=O)O`: the bioavailability in series [1] was 3.08%.

As for “Durvalumab: PD-L1 antibody Imfinzi (Durvalumab), 50 mg/mL, manufacturer AstraZeneca [reference compound]”, the “Tumor Volume” value in series [2] (Durvalumab 20 mg/kg, IP, BIW) is 341.19 ± 56.59/D19 mm^3. Further, the “TGI (tumor inhibition rate)” value in series [2] (Durvalumab 20 mg/kg, IP, BIW, vs vehicle control) was 48.17% and 48.17/D19%.

With `Cc1c(/C=C/c2cc(CNC(C)(CO)C(=O)O)ccc2C(F)(F)F)cccc1-c1ccc2c(c1)OCCO2` (stereo not drawn), the bioavailability in series [1] came out at 5.98%.

Molecule `COc1cc(/C=C/c2cccc(-c3ccccc3)c2C)cc(OC)c1CN[C@@](C)(CO)C(=O)O` yielded a bioavailability in series [1] of 3.89%.

As to `Cc1c(/C=C/c2cc(CNC(CO)C(=O)O)ccc2C(F)(F)F)cccc1-c1ccccc1F` (stereo not drawn) [Compound 13, (E)-2-(3-(2-(2′-fluoro-2-methylbiphenyl-3-yl)vinyl)-4-(trifluoromethyl)benzylamino)-3-hydroxypropanoic Acid], in series [1], the bioavailability is 16.1%. At PD-1/PD-L1, the IC50 came out at 13 nM.

For the molecule `Cc1c(/C=C/c2cc(CN[C@](C)(CO)C(=O)O)ccc2C(F)(F)F)cccc1-c1ccccc1` [Compound 27, (R,E)-2-(3-(2-(2-methylbiphenyl-3-yl)vinyl)-4-(trifluoromethyl)benzylamino)-3-hydroxy-2-methylpropanoic Acid], the bioavailability in series [1] was determined as 52.3%. The molecule also had an IC50 on PD-1/PD-L1 of 18 nM.

For the molecule `COc1cc(/C=C/c2cccc(-c3ccccc3)c2C)cc(OC)c1CN[C@](C)(CO)C(=O)O`, the bioavailability in series [1] worked out at 4.42%.

In turn, `Cc1c(/C=C/c2cc(CN[C@@](C)(CO)C(=O)O)ccc2C(F)(F)F)cccc1-c1ccccc1` [Compound 29, (S,E)-2-(3-(2-(2-methylbiphenyl-3-yl)vinyl)-4-(trifluoromethyl)benzylamino)-3-hydroxy-2-methylpropanoic Acid] displayed a bioavailability in series [1] of 38.2%. Besides, on PD-1/PD-L1, the IC50 came out at 19 nM. The “Tumor Volume” value is given as 459.82 ± 58.24/D19 mm^3 in series [2] (30 mg/kg, PO, BID); 439.04 ± 51.23/D19 mm^3 in series [2] (60 mg/kg, PO, BID); 325.23 ± 38.59/D19 mm^3 in series [2] (120 mg/kg, PO, BID). The “TGI (tumor inhibition rate)” value is 24.95/D19% in series [2] (30 mg/kg, PO, BID, vs vehicle control); 29.06/D19% in series [2] (60 mg/kg, PO, BID, vs vehicle control); 51.21% and 51.21/D19% in series [2] (120 mg/kg, PO, BID, vs vehicle control (max tumor inhibition rate of Compound 29)).

Usually bioavailability stands for dose-corrected exposure relative to a reference, in per cent. Read a low bioavailability as little systemic uptake. As a reminder, the IC50 is the midpoint of a concentration-inhibition curve. High values mean weaker potency in that assay, low ones greater potency in that assay.
